Results from patent publication US9624199B2, “Substituted bipiperidinyl derivatives” (Bayer Pharma Aktiengesellschaft, priority 2013, dated 2017).
Counter-ions that a name gives are not always drawn.

Assays:
[1] = biological target: recombinant human α2C receptor CHO cell line (Homo sapiens (Human), UniProt P18825); test: Antagonism against adrenoreceptor α2C (luminescence, noradrenaline-stimulated recombinant CHO cells); format: cell-based; details: 20 nM noradrenaline, tested up to 10 μM
Description: B-1a) Antagonism Against Adrenoreceptors
Antagonism against the adrenoreceptor α1A was tested using a recombinant human α1A receptor CHO cell line which additionally also recombinantly expresses mtAeq (mitochondrial aequorin). Antagonism against the adrenoreceptor α2A was tested using a recombinant human α2A-Gα16 receptor fusion protein CHO cell line (PerkinElmer Life Sciences) which additionally also recombinantly expresses mtAeq. Antagonism against the adrenoreceptor α2B was tested using a recombinant human α2B receptor CHO cell line (PerkinElmer Life Sciences) which additionally also recombinantly expresses mtAeq. Antagonism against the adrenoreceptor α2C was tested using a recombinant human α2C receptor CHO cell line which additionally also recombinantly expresses a chimeric G protein (Gαqi3) and mtOb (mitochondrial obelin).
The cells were cultivated at 37° C. and 5% CO2 in Dulbecco's modified Eagle's Medium/NUT mix F12 with L-glutamine which additionally contained 10% (v/v) inactivated foetal calf serum, 1 mM sodium pyruvate, 0.9 mM sodium bicarbonate, 50 U/ml penicillin, 50 μg/ml streptomycin, 2.5 μg/ml amphotericin B and 1 mg/ml Geneticin. The cells were passaged with enzyme-free Hank's-based cell dissociation buffer. All cell culture reagents used were from Invitrogen (Carlsbad, USA).
Luminescence measurements were carried out on white 384-well microtitre plates. 2000 cells/well were plated in a volume of 25 μl and cultivated for one day at 30° C. and 5% CO2 in cell culture medium with coelenterazine (α2A and α2B: 5 μg/ml; α1a/c and α2C: 2.5 μg/ml). Serial dilutions of the test substances (10 μl) were added to the cells. After 5 minutes, noradrenaline was added to the cells (35 μl; final concentrations: 20 nM (α1a/c and α2C) or 200 nM (α2A and α2B)), and the emitted light was measured for 50 seconds using a CCD (charge-coupled device) camera (Hamamatsu Corporation, Shizuoka, Japan) in a light-tight box. The test substances were tested up to a maximum concentration of 10 μM. The IC50 values were calculated from the appropriate dose-response curves.

[2] = system: diabetic (ZDFfa/fa) and healthy rats (Wistar); test: Assay of perfusion-enhancing substances (microcirculation), laser doppler probe at the paw; format: in vivo, rat; details: single oral dose; for factor by which microcirculation is improved at MED compared to placebo: at the MED, 30 min after administration; for MED skin temperature: minimum effective dose for significant increase of skin temperature (ttest); for MED microcirculation: minimum effective dose with significantly improved microcirculation vs placebo, measured 30 min after administration
Source text: B-2e) Assay of Perfusion-Enhancing Substances (Microcirculation)
In diabetic (ZDFfa/fa) and healthy rats (Wistar), a laser doppler probe was fastened under anaesthesia conditions (isoflurane anaesthesia) at the sole of the paw for measuring cutaneous microcirculation. The test animals were once treated orally with the test substances. During the experiment, microperfusion and temperature of the lower extremities were documented continuously. Here, a temperature-sensitive laser doppler probe (Periflux, 02C) was fastened with adhesive to the paws of the animals, allowing the measurement of microperfusion and skin temperature. The microcirculation measurement values were measured on both paws 30 min after oral administration of the test substance. […] Also stated is the MED for the significant increase of skin temperature (ttest).
Microcirculation data for adrenoreceptor α2C receptor antagonist of the compound of Example 11 and for comparative substance ORM12741, an AR α2C receptor antagonist from Orion, are shown in Table 2: […]

Sequence of recombinant human α2C receptor CHO cell line (P18825 whole entry): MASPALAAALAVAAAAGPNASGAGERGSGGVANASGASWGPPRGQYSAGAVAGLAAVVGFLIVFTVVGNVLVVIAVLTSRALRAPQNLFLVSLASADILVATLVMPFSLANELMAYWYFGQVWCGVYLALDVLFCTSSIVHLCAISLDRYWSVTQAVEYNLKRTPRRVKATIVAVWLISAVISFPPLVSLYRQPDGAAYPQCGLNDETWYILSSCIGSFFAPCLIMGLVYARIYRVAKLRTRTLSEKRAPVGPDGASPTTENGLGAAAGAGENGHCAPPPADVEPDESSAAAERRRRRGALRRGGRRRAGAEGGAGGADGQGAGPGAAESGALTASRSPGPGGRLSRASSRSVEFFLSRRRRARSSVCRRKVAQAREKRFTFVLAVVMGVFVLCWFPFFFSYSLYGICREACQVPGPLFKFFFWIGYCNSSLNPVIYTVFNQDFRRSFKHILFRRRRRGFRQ

C[C@@H]1CCCN(C2CCN(C(=O)c3ccc(N4CCOCC4)nc3)CC2)C1 [Example 1, [(3R)-3-Methyl-1,4′-bipiperidin-1′-yl][6-(morpholin-4-yl)pyridin-3-yl]methanone formic acid salt]
IC50 ([1]; formic acid salt): 0.028 µM

C[C@@H]1CCCN(C2CCN(C(=O)c3ccc(N4CCOCC4)nc3)CC2)C1 [Example 2, [(3R)-3-Methyl-1,4′-bipiperidin-1′-yl][6-(morpholin-4-yl)pyridin-3-yl]methanone]
IC50 [1]: 0.05 µM

COC[C@H]1CCCN1c1ccc(C(=O)N2CCC(N3CCC[C@@H](C)C3)CC2)cn1 [Example 3, {6-[(2R)-2-(Methoxymethyl)pyrrolidin-1-yl]pyridin-3-yl}[(3R)-3-methyl-1,4′-bipiperidin-1′-yl]methanone formic acid salt]
IC50 [1]: 0.011 µM

COCCNc1ccc(C(=O)N2CCC(N3CCC[C@@H](C)C3)CC2)cn1 [Example 4, {6-[(2-Methoxyethyl)amino]pyridin-3-yl}[(3R)-3-methyl-1,4′-bipiperidin-1′-yl]methanone]
IC50 [1]: 0.036 µM

C[C@@H]1CCCN(C2CCN(C(=O)c3ccc(N4CCC(F)(F)CC4)nc3)CC2)C1 [Example 5, [6-(4,4-Difluoropiperidin-1-yl)pyridin-3-yl][(3R)-3-methyl-1,4′-bipiperidin-1′-yl]methanone]
IC50 [1]: 0.018 µM

COCCN(C)c1ccc(C(=O)N2CCC(N3CCC[C@@H](C)C3)CC2)cn1 [Example 6, {6-[(2-Methoxyethyl)(methyl)amino]pyridin-3-yl}[(3R)-3-methyl-1,4′-bipiperidin-1′-yl]methanone hydrochloride]
IC50 [1]: 0.033 µM

O=C(c1ccc(N2CCOCC2)nc1)N1CCC(N2CCCC(OCC3CC3)C2)CC1 (stereo not drawn) [Example 7, [3-(Cyclopropylmethoxy)-1,4′-bipiperidin-1′-yl][6-(morpholin-4-yl)pyridin-3-yl]methanone]
IC50 [1]: 0.013 µM

C[C@@H]1CCCN(C2CCN(C(=O)c3ccc(N(C)Cc4c(F)cccc4F)nc3)CC2)C1 [Example 8, {6-[(2,6-Difluorobenzyl)(methyl)amino]pyridin-3-yl}[(3R)-3-methyl-1,4′-bipiperidin-1′-yl]methanone]
IC50 [1]: 0.0045 µM

C[C@@H]1CCCN(C2CCN(C(=O)c3ccc(N4CCS(=O)(=O)CC4)nc3)CC2)C1 [Example 9, [6-(1,1-Dioxidothiomorpholin-4-yl)pyridin-3-yl][(3R)-3-methyl-1,4′-bipiperidin-1′-yl]methanone]
IC50 [1]: 0.027 µM

CC[C@@H](CO)Nc1ccc(C(=O)N2CCC(N3CCC[C@@H](C)C3)CC2)cn1 [Example 10, (6-{[(2 S)-1-Hydroxybutan-2-yl]amino}pyridin-3-yl)[(3R)-3-methyl-1,4′-bipiperidin-1′-yl]methanone]
IC50 [1]: 0.018 µM

CCC(CO)Nc1ccc(C(=O)N2CCC(N3CCC[C@@H](C)C3)CC2)cn1 (stereo partly drawn) [Example 11, {6[(1-Hydroxybutan-2-yl)amino]pyridin-3-yl}[(3R)-3-methyl-1,4′-bipiperidin-1′-yl]methanone]
IC50 [1]: 0.062 µM
factor by which microcirculation is improved at MED compared to placebo [2]: 2.4 ×
MED skin temperature [2]: 1 mg/kg
MED microcirculation [2]: 1 mg/kg

CCC(COC(N)=O)Nc1ccc(C(=O)N2CCC(N3CCC[C@@H](C)C3)CC2)cn1 (stereo partly drawn) [Example 12, 2-[(5-{[(3R)-3-Methyl-1,4′-bipiperidin-1′-yl]carbonyl}pyridin-2-yl)amino]butyl carbamate]
IC50 [1]: 0.021 µM

COC1CCN(c2ccc(C(=O)N3CCC(N4CCC[C@@H](C)C4)CC3)cn2)C1 (stereo partly drawn) [Example 13, [6-(3-Methoxypyrrolidin-1-yl)pyridin-3-yl][(3R)-3-methyl-1,4′-bipiperidin-1′-yl]methanone]
IC50 [1]: 0.012 µM

CCC(COC)Nc1ccc(C(=O)N2CCC(N3CCC[C@@H](C)C3)CC2)cn1 (stereo partly drawn) [Example 14, {6-[(1-Methoxybutan-2-yl)amino]pyridin-3-yl}[(3R)-3-methyl-1,4′-bipiperidin-1′-yl]methanone]
IC50 [1]: 0.016 µM

CC1CCCN(c2ccc(C(=O)N3CCC(N4CCC[C@@H](C)C4)CC3)cn2)C1 (stereo partly drawn) [Example 15, [(3R)-3-Methyl-1,4′-bipiperidin-1′-yl][6-(3-methylpiperidin-1-yl)pyridin-3-yl]methanone]
IC50 [1]: 0.027 µM

C[C@@H]1CCCN(C2CCN(C(=O)c3cnc(N4CCOCC4)nc3)CC2)C1 [Example 16, [(3R)-3-Methyl-1,4′-bipiperidin-1′-yl][2-(morpholin-4-yl)pyrimidin-5-yl]methanone]
IC50 [1]: 0.054 µM

O=C(c1cnc(N2CCOCC2)nc1)N1CCC(N2CCCC(OCC3CC3)C2)CC1 (stereo not drawn) [Example 17, [3-(Cyclopropylmethoxy)-1,4′-bipiperidin-1′-yl][2-(morpholin-4-yl)pyrimidin-5-yl]methanone]
IC50 [1]: 0.014 µM

C[C@@H]1CCCN(C2CCN(C(=O)c3cnc(N4CC5(COC5)C4)nc3)CC2)C1 [Example 18, [(3R)-3-Methyl-1,4′-bipiperidin-1′-yl][2-(2-oxa-6-azaspiro[3.3]hept-6-yl)pyrimidin-5-yl]methanone]
IC50 [1]: 0.024 µM

C[C@@H]1CCCN(C2CCN(C(=O)c3cnc(N4CCC(F)(F)CC4)nc3)CC2)C1 [Example 19, [2-(4,4-Difluoropiperidin-1-yl)pyrimidin-5-yl][(3R)-3-methyl-1,4′-bipiperidin-1′-yl]methanone]
IC50 [1]: 0.019 µM

COC[C@H]1CCCN1c1ncc(C(=O)N2CCC(N3CCC[C@@H](C)C3)CC2)cn1 [Example 20, {2-[(2R)-2-(Methoxymethyl)pyrrolidin-1-yl]pyrimidin-5-yl}[(3R)-3-methyl-1,4′-bipiperidin-1′-yl]methanone]
IC50 [1]: 0.041 µM

C[C@@H]1CCCN(C2CCN(C(=O)c3cnc(N4CCS(=O)(=O)CC4)cn3)CC2)C1 [Example 21, [5-(1,1-Dioxidothiomorpholin-4-yl)pyrazin-2-yl][(3R)-3-methyl-1,4′-bipiperidin-1′-yl]methanone]
IC50 [1]: 0.071 µM

COC[C@@]1(C)CCCN2CCc3c(oc4ccccc34)[C@@H]21 [ORM-12741, reference compound]
factor by which microcirculation is improved at MED compared to placebo [2]: 1.9 ×
MED skin temperature [2]: 0.01 mg/kg
MED microcirculation [2]: 0.1 mg/kg
